Assay results taken from patent publication US20150094474A1, “AGRICULTURAL CHEMICALS” (Redx Pharma Ltd., priority 2012, published 2015).

Tests used:
[1] = test system: barley; test: Herbicidal bioassay, barley (% necrosis); assay type: in vivo
Method in brief: (§1)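 Scoring of % necrosis followed EPPO guideline PP1/135 at specified growth intervals, five replicates per species and treatment. Plants at the 2-4 true leaf stage received Potter-tower sprays of DMSO-diluted compounds across six levels from 0.0001% to 0.05%, with water and DMSO controls.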

[2] = test system: peas; test: Herbicidal bioassay, peas (% necrosis); assay type: in vivo
Method in brief: as §1

## CC(C=O)Oc1ccc(Oc2ccc(C(F)(F)F)cn2)cc1 (stereo not drawn) [Compound 28, 2-[4-[[5-(Trifluoromethyl)-2-pyridyl]oxy]phenoxy]propanal]
[1]; Dose 0.000001, Day 0
  Sum of % necrosis in barley: C (less than 50% necrosis)
[1]; Dose 0.000001, Day 1
  Sum of % necrosis in barley: C (less than 50% necrosis)
[1]; Dose 0.000001, Day 3
  Sum of % necrosis in barley: C (less than 50% necrosis)
[1]; Dose 0.000001, Day 7
  Sum of % necrosis in barley: C (less than 50% necrosis)
[1]; Dose 0.000001, Day 10
  Sum of % necrosis in barley: C (less than 50% necrosis)
[1]; Dose 0.000001, Day 14
  Sum of % necrosis in barley: C (less than 50% necrosis)
[1]; Dose 0.000001, Day 21
  Sum of % necrosis in barley: C (less than 50% necrosis)
[1]; Dose 0.000005, Day 0
  Sum of % necrosis in barley: C (less than 50% necrosis)
[1]; Dose 0.000005, Day 1
  Sum of % necrosis in barley: C (less than 50% necrosis)
[1]; Dose 0.000005, Day 3
  Sum of % necrosis in barley: C (less than 50% necrosis)
[1]; Dose 0.000005, Day 7
  Sum of % necrosis in barley: C (less than 50% necrosis)
[1]; Dose 0.000005, Day 10
  Sum of % necrosis in barley: C (less than 50% necrosis)
[1]; Dose 0.000005, Day 14
  Sum of % necrosis in barley: C (less than 50% necrosis)
[1]; Dose 0.000005, Day 21
  Sum of % necrosis in barley: C (less than 50% necrosis)
[1]; Dose 0.00001, Day 0
  Sum of % necrosis in barley: C (less than 50% necrosis)
[1]; Dose 0.00001, Day 1
  Sum of % necrosis in barley: C (less than 50% necrosis)
[1]; Dose 0.00001, Day 3
  Sum of % necrosis in barley: C (less than 50% necrosis)
[1]; Dose 0.00001, Day 7
  Sum of % necrosis in barley: C (less than 50% necrosis)
[1]; Dose 0.00001, Day 10
  Sum of % necrosis in barley: C (less than 50% necrosis)
[1]; Dose 0.00001, Day 14
  Sum of % necrosis in barley: C (less than 50% necrosis)
[1]; Dose 0.00001, Day 21
  Sum of % necrosis in barley: C (less than 50% necrosis)
[1]; Dose 0.00005, Day 0
  Sum of % necrosis in barley: C (less than 50% necrosis)
[1]; Dose 0.00005, Day 1
  Sum of % necrosis in barley: C (less than 50% necrosis)
[1]; Dose 0.00005, Day 3
  Sum of % necrosis in barley: C (less than 50% necrosis)
[1]; Dose 0.00005, Day 7
  Sum of % necrosis in barley: C (less than 50% necrosis)
[1]; Dose 0.00005, Day 10
  Sum of % necrosis in barley: C (less than 50% necrosis)
[1]; Dose 0.00005, Day 14
  Sum of % necrosis in barley: C (less than 50% necrosis)
[1]; Dose 0.00005, Day 21
  Sum of % necrosis in barley: C (less than 50% necrosis)
[1]; Dose 0.0001, Day 0
  Sum of % necrosis in barley: C (less than 50% necrosis)
[1]; Dose 0.0001, Day 1
  Sum of % necrosis in barley: C (less than 50% necrosis)
[1]; Dose 0.0001, Day 3
  Sum of % necrosis in barley: C (less than 50% necrosis)
[1]; Dose 0.0001, Day 7
  Sum of % necrosis in barley: C (less than 50% necrosis)
[1]; Dose 0.0001, Day 10
  Sum of % necrosis in barley: C (less than 50% necrosis)
[1]; Dose 0.0001, Day 14
  Sum of % necrosis in barley: C (less than 50% necrosis)
[1]; Dose 0.0001, Day 21
  Sum of % necrosis in barley: B (50%-80% necrosis)
[1]; Dose 0.0005, Day 0
  Sum of % necrosis in barley: C (less than 50% necrosis)
[1]; Dose 0.0005, Day 1
  Sum of % necrosis in barley: C (less than 50% necrosis)
[1]; Dose 0.0005, Day 3
  Sum of % necrosis in barley: C (less than 50% necrosis)
[1]; Dose 0.0005, Day 7
  Sum of % necrosis in barley: C (less than 50% necrosis)
[1]; Dose 0.0005, Day 10
  Sum of % necrosis in barley: C (less than 50% necrosis)
[1]; Dose 0.0005, Day 14
  Sum of % necrosis in barley: C (less than 50% necrosis)
[1]; Dose 0.0005, Day 21
  Sum of % necrosis in barley: A (over 80% necrosis)
[2]; Dose 0.000001, Day 0
  Sum of % necrosis in Peas: C (less than 50% necrosis)
[2]; Dose 0.000001, Day 1
  Sum of % necrosis in Peas: C (less than 50% necrosis)
[2]; Dose 0.000001, Day 3
  Sum of % necrosis in Peas: C (less than 50% necrosis)
[2]; Dose 0.000001, Day 7
  Sum of % necrosis in Peas: C (less than 50% necrosis)
[2]; Dose 0.000001, Day 10
  Sum of % necrosis in Peas: C (less than 50% necrosis)
[2]; Dose 0.000001, Day 14
  Sum of % necrosis in Peas: C (less than 50% necrosis)
[2]; Dose 0.000001, Day 21
  Sum of % necrosis in Peas: B (50%-80% necrosis)
[2]; Dose 0.000005, Day 0
  Sum of % necrosis in Peas: C (less than 50% necrosis)
[2]; Dose 0.000005, Day 1
  Sum of % necrosis in Peas: C (less than 50% necrosis)
[2]; Dose 0.000005, Day 3
  Sum of % necrosis in Peas: C (less than 50% necrosis)
[2]; Dose 0.000005, Day 7
  Sum of % necrosis in Peas: B (50%-80% necrosis)
[2]; Dose 0.000005, Day 10
  Sum of % necrosis in Peas: B (50%-80% necrosis)
[2]; Dose 0.000005, Day 14
  Sum of % necrosis in Peas: B (50%-80% necrosis)
[2]; Dose 0.000005, Day 21
  Sum of % necrosis in Peas: A (over 80% necrosis)
[2]; Dose 0.00001, Day 0
  Sum of % necrosis in Peas: C (less than 50% necrosis)
[2]; Dose 0.00001, Day 1
  Sum of % necrosis in Peas: C (less than 50% necrosis)
[2]; Dose 0.00001, Day 3
  Sum of % necrosis in Peas: C (less than 50% necrosis)
[2]; Dose 0.00001, Day 7
  Sum of % necrosis in Peas: C (less than 50% necrosis)
[2]; Dose 0.00001, Day 10
  Sum of % necrosis in Peas: C (less than 50% necrosis)
[2]; Dose 0.00001, Day 14
  Sum of % necrosis in Peas: A (over 80% necrosis)
[2]; Dose 0.00001, Day 21
  Sum of % necrosis in Peas: A (over 80% necrosis)
[2]; Dose 0.00005, Day 0
  Sum of % necrosis in Peas: C (less than 50% necrosis)
[2]; Dose 0.00005, Day 1
  Sum of % necrosis in Peas: C (less than 50% necrosis)
[2]; Dose 0.00005, Day 3
  Sum of % necrosis in Peas: C (less than 50% necrosis)
[2]; Dose 0.00005, Day 7
  Sum of % necrosis in Peas: C (less than 50% necrosis)
[2]; Dose 0.00005, Day 10
  Sum of % necrosis in Peas: C (less than 50% necrosis)
[2]; Dose 0.00005, Day 14
  Sum of % necrosis in Peas: A (over 80% necrosis)
[2]; Dose 0.00005, Day 21
  Sum of % necrosis in Peas: A (over 80% necrosis)
[2]; Dose 0.0001, Day 0
  Sum of % necrosis in Peas: C (less than 50% necrosis)
[2]; Dose 0.0001, Day 1
  Sum of % necrosis in Peas: C (less than 50% necrosis)
[2]; Dose 0.0001, Day 3
  Sum of % necrosis in Peas: C (less than 50% necrosis)
[2]; Dose 0.0001, Day 7
  Sum of % necrosis in Peas: C (less than 50% necrosis)
[2]; Dose 0.0001, Day 10
  Sum of % necrosis in Peas: C (less than 50% necrosis)
[2]; Dose 0.0001, Day 14
  Sum of % necrosis in Peas: A (over 80% necrosis)
[2]; Dose 0.0001, Day 21
  Sum of % necrosis in Peas: A (over 80% necrosis)
[2]; Dose 0.0005, Day 0
  Sum of % necrosis in Peas: C (less than 50% necrosis)
[2]; Dose 0.0005, Day 1
  Sum of % necrosis in Peas: C (less than 50% necrosis)
[2]; Dose 0.0005, Day 3
  Sum of % necrosis in Peas: C (less than 50% necrosis)
[2]; Dose 0.0005, Day 7
  Sum of % necrosis in Peas: B (50%-80% necrosis)
[2]; Dose 0.0005, Day 10
  Sum of % necrosis in Peas: B (50%-80% necrosis)
[2]; Dose 0.0005, Day 14
  Sum of % necrosis in Peas: A (over 80% necrosis)
[2]; Dose 0.0005, Day 21
  Sum of % necrosis in Peas: A (over 80% necrosis)
